Three molecules from ChEMBL document CHEMBL4373723 (J Med Chem, 2019) can be followed below.

Data set [1] concerns the target T1, Frizzled-7 (Homo sapiens, UniProt O75084). It is filed as cell-based. Conditions: cho.
Data set [2] addresses T1, Frizzled-7. Briefly: biochemical. It is filed as cell-based, CHO. Conditions: read-out: Kd.
In data set [3] the target is T1, Frizzled-7. Briefly: Inhibition of Frizzled-7 in HEK293 cells expressing Wnt assessed as reduction in Wnt signaling by firefly luciferase reporter gene assay. Format: cell-based.
A short description of data set [4]: Stability in cell culture medium containing 10% fetal bovine serum at 200 uM at 37 degC measured over 24 hrs by LC-MS analysis. Format: ADME, cell-free, Bos taurus. Conditions: cattle.
Data set [5] in a line: Stability in presence of TCEP assessed as disulfide reduction at 20 uM measured over 40 mins at 37 degC by LC-MS analysis. It is filed as physicochemical.
Data set [6] has as its target T1, Frizzled-7. Briefly: Binding affinity to recombinant human Frizzled-7 (Gln33 to Leu185 residues)/human IgG1 chimeric protein expressed in CHO cells assessed as reduction in interaction of TcdB with FZD7 incubated for 1 hr by competition ELISA. It is filed as cell-based. A general note: ELISA stands for enzyme-linked immunosorbent assay.
A short description of data set [7]: Binding affinity to recombinant human/mouse Frizzled-2 (Gln29 to Leu168 residues)/human IgG1 chimeric protein expressed in mouse NS0 cells assessed as reduction in interaction of TcdB with FZD7 incubated for 1 hr by competition ELISA. It is filed as cell-based.
For data set [8], the species on record is Homo sapiens. In words: Modulation of Frizzled in human Caco2 cells assessed as protection against TcdB-induced cell rounding incubated for 24 hrs by phalloidin conjugated AlexaFluor488 dye based fluorescence microscopy.
Data set [9] is filed under the species Homo sapiens. In words: Modulation of Frizzled in human Caco2 cells assessed as protection against 0.1 to 1 ng/ml TcdB-induced cell rounding incubated for 24 hrs by phalloidin conjugated AlexaFluor488 dye based fluorescence microscopy relative to control.
For data set [10], the species on record is Homo sapiens. Briefly: Modulation of Frizzled in human Caco2 cells assessed as protection against 0.25 to 0.5 ng/ml TcdB-induced cell rounding at 50 uM incubated for 24 hrs by phalloidin conjugated AlexaFluor488 dye based fluorescence microscopy relative to control.
For data set [11], the species on record is Homo sapiens. Briefly: Modulation of Frizzled in human Caco2 cells assessed as protection against 4 ng/ml TcdB-induced cell rounding at 50 uM incubated for 24 hrs by phalloidin conjugated AlexaFluor488 dye based fluorescence microscopy relative to control.
The species entered for data set [12] is Cricetulus griseus. Briefly: Modulation of Frizzled in CHOK1 cells assessed as protection against 5 ng/ml TcdB-induced cell rounding at 50 uM incubated for 24 hrs by phalloidin conjugated AlexaFluor488 dye based fluorescence microscopy relative to control.
Data set [13] has as its target T1, Frizzled-7. Conditions: CHO.
The conditions of data set [14]: mouse, serum, 24 h, 200 µM.
The conditions of data set [15]: 40 min, 20 µM.
For data set [16] the following is noted: 40 min, 20 µM. The source holds these as a separate data set.
Data set [17] addresses T1, Frizzled-7. Briefly: Binding affinity to recombinant human Frizzled-7 (Gln33 to Leu185 residues)/human IgG1 chimeric protein expressed in CHO cells assessed as association rate constant by SPR assay. It is filed as cell-based. For orientation: SPR reads the build-up and loss of mass on a sensor chip optically.
Data set [18] addresses Frizzled-1 (Homo sapiens, UniProt Q9UP38). In words: Binding affinity to recombinant human Frizzled-1 (Gln73 to His253 residues)/human IgG1 chimeric protein expressed in mouse NS0 cells by SPR assay.
A short description of data set [19]: Binding affinity to recombinant human/mouse Frizzled-2 (Gln29 to Leu168 residues)/human IgG1 chimeric protein expressed in mouse NS0 cells by SPR assay.
In data set [20] the target is Frizzled-5 (Homo sapiens, UniProt Q13467). Briefly: Binding affinity to recombinant human Frizzled-5 (Ala27 to Pro167 residues)/human IgG1 chimeric protein expressed in mouse NS0 cells by SPR assay.
Sequence of Frizzled-5 (Q13467 whole entry): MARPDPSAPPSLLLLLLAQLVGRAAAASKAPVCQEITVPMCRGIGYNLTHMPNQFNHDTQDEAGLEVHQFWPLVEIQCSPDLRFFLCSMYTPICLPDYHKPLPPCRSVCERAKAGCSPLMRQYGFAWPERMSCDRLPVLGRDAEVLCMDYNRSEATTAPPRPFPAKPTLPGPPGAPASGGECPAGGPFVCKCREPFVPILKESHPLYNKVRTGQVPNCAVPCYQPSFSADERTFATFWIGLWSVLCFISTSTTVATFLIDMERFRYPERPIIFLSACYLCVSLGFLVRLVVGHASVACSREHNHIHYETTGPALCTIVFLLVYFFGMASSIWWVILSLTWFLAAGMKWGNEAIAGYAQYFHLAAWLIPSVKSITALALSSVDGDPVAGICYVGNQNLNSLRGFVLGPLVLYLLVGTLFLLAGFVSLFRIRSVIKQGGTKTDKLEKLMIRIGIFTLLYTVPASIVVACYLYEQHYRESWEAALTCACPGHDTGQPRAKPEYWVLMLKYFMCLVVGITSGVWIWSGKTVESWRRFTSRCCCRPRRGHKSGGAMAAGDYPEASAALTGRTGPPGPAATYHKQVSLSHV
Data set [21] addresses Frizzled-8 (Homo sapiens, UniProt Q9H461). In words: Binding affinity to recombinant human Frizzled-8 (Ala25 to Pro172 residues)/human IgG1 chimeric protein expressed in CHO cells […] by SPR assay.
Data set [22] concerns the target T2, Frizzled-4 (Homo sapiens, UniProt Q9ULV1).
T2 sequence (Q9ULV1 whole entry): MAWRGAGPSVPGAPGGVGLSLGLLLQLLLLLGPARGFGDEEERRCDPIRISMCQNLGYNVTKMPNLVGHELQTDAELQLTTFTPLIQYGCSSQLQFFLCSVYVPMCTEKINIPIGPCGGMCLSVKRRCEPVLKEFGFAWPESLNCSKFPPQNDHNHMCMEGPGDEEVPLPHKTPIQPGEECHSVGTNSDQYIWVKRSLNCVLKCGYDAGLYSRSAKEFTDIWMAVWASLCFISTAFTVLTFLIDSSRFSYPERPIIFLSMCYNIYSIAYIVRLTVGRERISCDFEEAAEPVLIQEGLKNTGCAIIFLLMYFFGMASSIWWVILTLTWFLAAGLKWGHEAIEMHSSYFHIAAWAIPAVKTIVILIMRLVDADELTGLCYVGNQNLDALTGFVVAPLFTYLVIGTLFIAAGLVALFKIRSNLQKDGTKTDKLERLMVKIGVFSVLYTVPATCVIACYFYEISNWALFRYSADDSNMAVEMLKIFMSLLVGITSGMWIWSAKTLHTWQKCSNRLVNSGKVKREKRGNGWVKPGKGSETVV
In words: Binding affinity to recombinant human Frizzled-4 (Phe37 to Glu180 residues)/human IgG1 chimeric protein expressed in mouse NS0 cells by SPR assay.

Data set [23] has as its target T3, Frizzled-9 (Homo sapiens, UniProt O00144).
T3 sequence (O00144 whole entry): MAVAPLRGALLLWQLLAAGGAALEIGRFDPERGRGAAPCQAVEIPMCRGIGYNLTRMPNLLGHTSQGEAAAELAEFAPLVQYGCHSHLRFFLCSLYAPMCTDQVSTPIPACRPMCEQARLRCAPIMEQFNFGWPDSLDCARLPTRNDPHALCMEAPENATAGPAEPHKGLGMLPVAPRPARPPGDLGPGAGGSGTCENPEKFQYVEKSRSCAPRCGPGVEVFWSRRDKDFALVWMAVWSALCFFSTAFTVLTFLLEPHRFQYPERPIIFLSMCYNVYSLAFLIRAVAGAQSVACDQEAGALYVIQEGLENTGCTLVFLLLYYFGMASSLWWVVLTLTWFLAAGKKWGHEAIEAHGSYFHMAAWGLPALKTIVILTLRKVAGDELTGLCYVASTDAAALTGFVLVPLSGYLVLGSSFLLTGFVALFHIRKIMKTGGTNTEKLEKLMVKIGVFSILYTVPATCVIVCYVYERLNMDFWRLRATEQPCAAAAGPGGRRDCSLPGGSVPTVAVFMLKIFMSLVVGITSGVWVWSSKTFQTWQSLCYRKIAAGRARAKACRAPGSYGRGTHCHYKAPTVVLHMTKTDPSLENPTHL
Briefly: Binding affinity to Frizzled-9 CRD (unknown origin).

The target in data set [24] is T4, Frizzled-10 (Homo sapiens, UniProt Q9ULW2).
T4 sequence (Q9ULW2 whole entry): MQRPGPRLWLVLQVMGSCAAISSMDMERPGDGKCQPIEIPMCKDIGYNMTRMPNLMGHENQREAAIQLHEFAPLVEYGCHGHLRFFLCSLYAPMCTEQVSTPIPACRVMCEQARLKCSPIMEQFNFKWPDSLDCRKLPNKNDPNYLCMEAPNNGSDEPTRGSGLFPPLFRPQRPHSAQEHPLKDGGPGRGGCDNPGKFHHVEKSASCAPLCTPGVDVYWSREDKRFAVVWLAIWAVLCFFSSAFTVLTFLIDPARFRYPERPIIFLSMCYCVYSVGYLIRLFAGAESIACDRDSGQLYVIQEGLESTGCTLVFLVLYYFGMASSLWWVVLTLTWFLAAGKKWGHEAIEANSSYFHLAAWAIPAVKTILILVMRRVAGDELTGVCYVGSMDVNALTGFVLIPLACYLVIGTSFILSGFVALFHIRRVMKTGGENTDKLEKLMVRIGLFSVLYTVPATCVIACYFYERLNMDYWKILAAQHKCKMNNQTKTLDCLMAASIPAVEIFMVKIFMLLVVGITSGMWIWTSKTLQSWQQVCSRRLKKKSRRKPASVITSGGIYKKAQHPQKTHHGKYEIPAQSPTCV
In words: Binding affinity to Frizzled-10 CRD (unknown origin).

In data set [25] the target is T1, Frizzled-7. Briefly: Binding affinity to recombinant human Frizzled-7 (Gln33 to Leu185 residues)/human IgG1 chimeric protein expressed in CHO cells assessed as reduction in interaction of TcdB with FZD7 by SPR.
The species named for data set [26] is Homo sapiens. In words: Binding affinity to recombinant human/mouse Frizzled-2 (Gln29 to Leu168 residues)/human IgG1 chimeric protein expressed in mouse NS0 cells assessed as reduction in interaction of TcdB with FZD7 by SPR.

Molecules are shown by their SMILES. Calls of active or inactive are those of the source. No cut-off for these calls is given here.

Sequence of Frizzled-1 (Q9UP38 whole entry): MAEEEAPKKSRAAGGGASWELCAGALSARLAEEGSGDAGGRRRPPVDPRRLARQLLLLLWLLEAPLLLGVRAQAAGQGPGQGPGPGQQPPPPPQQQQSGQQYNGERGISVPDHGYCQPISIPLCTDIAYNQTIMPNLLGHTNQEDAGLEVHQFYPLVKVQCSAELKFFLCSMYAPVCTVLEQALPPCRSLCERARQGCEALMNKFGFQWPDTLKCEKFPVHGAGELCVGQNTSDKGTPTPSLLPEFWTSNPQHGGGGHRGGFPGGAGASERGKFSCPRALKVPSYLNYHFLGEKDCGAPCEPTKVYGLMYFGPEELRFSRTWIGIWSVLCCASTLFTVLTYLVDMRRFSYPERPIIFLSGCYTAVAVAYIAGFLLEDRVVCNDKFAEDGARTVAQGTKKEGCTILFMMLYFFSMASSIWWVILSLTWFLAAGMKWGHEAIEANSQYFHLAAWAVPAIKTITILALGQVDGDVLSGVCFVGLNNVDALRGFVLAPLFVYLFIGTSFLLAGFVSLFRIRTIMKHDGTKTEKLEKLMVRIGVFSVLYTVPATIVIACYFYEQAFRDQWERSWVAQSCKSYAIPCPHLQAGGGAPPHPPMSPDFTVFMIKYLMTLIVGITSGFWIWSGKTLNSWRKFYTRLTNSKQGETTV
Sequence of Frizzled-8 (Q9H461 whole entry): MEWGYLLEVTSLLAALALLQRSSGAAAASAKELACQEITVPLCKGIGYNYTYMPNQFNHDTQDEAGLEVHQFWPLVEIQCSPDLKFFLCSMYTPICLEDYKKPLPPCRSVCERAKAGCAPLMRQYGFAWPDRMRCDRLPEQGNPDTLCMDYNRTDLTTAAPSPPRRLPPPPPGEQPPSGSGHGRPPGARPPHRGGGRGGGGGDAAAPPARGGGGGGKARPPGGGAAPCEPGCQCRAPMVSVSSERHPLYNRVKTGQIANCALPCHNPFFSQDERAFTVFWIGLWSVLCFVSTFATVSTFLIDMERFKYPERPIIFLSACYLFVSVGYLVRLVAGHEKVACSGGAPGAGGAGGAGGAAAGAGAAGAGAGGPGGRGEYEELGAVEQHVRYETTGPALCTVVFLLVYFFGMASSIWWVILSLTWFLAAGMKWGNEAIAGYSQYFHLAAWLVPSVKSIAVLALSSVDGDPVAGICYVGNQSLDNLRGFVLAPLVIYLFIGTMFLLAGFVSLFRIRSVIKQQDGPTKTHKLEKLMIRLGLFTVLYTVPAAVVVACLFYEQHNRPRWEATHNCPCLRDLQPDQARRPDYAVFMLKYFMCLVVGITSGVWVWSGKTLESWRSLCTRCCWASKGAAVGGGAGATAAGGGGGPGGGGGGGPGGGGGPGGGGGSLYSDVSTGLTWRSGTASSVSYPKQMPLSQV

On to `CC[C@H](C)[C@H](NC(=O)[C@H](Cc1cnc[nH]1)NC(=O)[C@H](CSSC[C@H](NC(=O)[C@H](Cc1c[nH]c2ccccc12)NC(=O)[C@H](CC(C)C)NC(=O)[C@H](CCC(=O)O)NC(=O)[C@H](CC(C)C)NC(=O)[C@H](CC(=O)O)NC(=O)[C@H](CC(=O)O)NC(=O)[C@@H](NC(C)=O)[C@H](C)O)C(=O)N[C@@H](Cc1cnc[nH]1)C(=O)N[C@H](C(=O)N[C@@H](CCSC)C(=O)N[C@@H](Cc1ccc(O)cc1)C(N)=O)[C@@H](C)CC)NC(=O)[C@H](Cc1c[nH]c2ccccc12)NC(=O)[C@H](CC(C)C)NC(=O)[C@H](CCC(=O)O)NC(=O)[C@H](CC(C)C)NC(=O)[C@H](CC(=O)O)NC(=O)[C@H](CC(=O)O)NC(=O)[C@@H](NC(C)=O)[C@H](C)O)C(=O)N[C@@H](CCSC)C(=O)N[C@@H](Cc1ccc(O)cc1)C(N)=O`, for which the Kd came out at 0.64 ×10⁻³ /s in data set [1] and 0.039 nM in data set [2]. The concentration for half-maximal inhibition (IC50) in data set [3] was determined as 9.2 nM. Also, the Stability result in data set [4] is on record as “Stable”; in data set [5] it was “Unstable”; in data set [14], “Stable”; in [15], “Unstable”; in data set [16], “Unstable”. Moreover, the inhibition result in [6], in data set [7] and in [8] was “Dose-dependent effect” each time. Besides, the Activity in data set [9] lay in the range of 34 to 69%. Further, the result in [10] and in data set [12] was Active. For the same molecule, the outcome in [11] was inactive. In [13], this molecule returned a Ka of 166 ×10⁵ /M/s.

For the molecule `CC[C@H](C)[C@H](NC(=O)[C@H](Cc1cnc[nH]1)NC(=O)[C@H](CSSCC[C@H](NC(=O)[C@H](Cc1c[nH]c2ccccc12)NC(=O)[C@H](CC(C)C)NC(=O)[C@H](CCC(=O)O)NC(=O)[C@H](CC(C)C)NC(=O)[C@H](CC(=O)O)NC(=O)[C@H](CC(=O)O)NC(=O)[C@@H](NC(C)=O)[C@@H](C)O)C(=O)N[C@@H](Cc1cnc[nH]1)C(=O)N[C@H](C(=O)N[C@@H](CCSC)C(=O)N[C@@H](Cc1ccc(O)cc1)C(N)=O)[C@@H](C)CC)NC(=O)[C@H](Cc1c[nH]c2ccccc12)NC(=O)[C@H](CC(C)C)NC(=O)[C@H](CCC(=O)O)NC(=O)[C@H](CC(C)C)NC(=O)[C@H](CC(=O)O)NC(=O)[C@H](CC(=O)O)NC(=O)[C@@H](NC(C)=O)[C@H](C)O)C(=O)N[C@@H](CCSC)C(=O)N[C@@H](Cc1ccc(O)cc1)C(N)=O`, the “association rate constant (ka)” value in [17] is reported as 1.7 ×10⁷ /M/s. Moreover, the Kd worked out at 6.3 ×10⁻³ /s in data set [1] and 0.37 nM in data set [2]. In addition, the Stability entry in data set [5], in data set [14] and in data set [15] was “Stable” in each case.

Consider `CC[C@H](C)[C@H](NC(=O)[C@H](Cc1cnc[nH]1)NC(=O)[C@H](CSSC[C@H](NC(=O)[C@H](Cc1c[nH]c2ccccc12)NC(=O)[C@H](Cc1cccc(Cl)c1)NC(=O)[C@H](CCC(=O)O)NC(=O)[C@H](CC(C)C)NC(=O)[C@H](CC(=O)O)NC(=O)[C@H](CC(=O)O)NC(=O)[C@@H](NC(C)=O)[C@H](C)O)C(=O)N[C@@H](Cc1cnc[nH]1)C(=O)N[C@H](C(=O)N[C@@H](CCSC)C(=O)N[C@@H](Cc1ccc(O)cc1)C(N)=O)[C@@H](C)CC)NC(=O)[C@H](Cc1c[nH]c2ccccc12)NC(=O)[C@H](CC(C)C)NC(=O)[C@H](CCC(=O)O)NC(=O)[C@H](Cc1cccc(Cl)c1)NC(=O)[C@H](CC(=O)O)NC(=O)[C@H](CC(=O)O)NC(=O)[C@@H](NC(C)=O)[C@H](C)O)C(=O)N[C@@H](CCSC)C(=O)N[C@@H](Cc1ccc(O)cc1)C(N)=O`, for which the Kd was 0.54 ×10⁻³ /s in [1]; 0.039 nM in [2]; 0.34 nM in data set [18]; 0.32 nM in [19]; “Not Active” in data set [20]; “Not Active” in data set [21]. Further, the Kd entry in data set [22], in data set [23] and in data set [24] was “Not Active” each time. The half-maximal inhibitory concentration (IC50) in data set [3] turned out to be 53 nM. Also, the inhibition result in data set [6] and in data set [7] was “Dose-dependent effect” each time. Besides, the inhibition entry in data set [25] and in [26] was “Active” each time. For the same molecule, the Ka in data set [13] was 139 ×10⁵ /M/s.

The IC50 is the midpoint of a concentration-inhibition curve.
